Source: patent US20260355189A1, “SMALL MOLECULE INHIBITORS OF NEUTROPHIL EXOCYTOSIS AND INFLAMMATION” (THE SCRIPPS RESEARCH INSTITUTE, priority 2022, published 2026)

Tests used:
[1] = tested on: LPS-challenged mice; test: LPS-induced systemic inflammation (endotoxemia/sepsis), plasma cytokines; format: in vivo, mouse; conditions: for IL-10 levels: FIG. 10B
Protocol: FIG. 10A-B. Treatment with compound NEIa-C6 inhibits pro-inflammatory cytokine production in a model of sepsis. We tested the ability of C6 to protect mice from LPS-induced systemic inflammation. In these experiments, mice (n=4 independent mice per group) receive NEIa-C6 (30 mg/Kg) or vehicle by a single i.p. injection and two hours later, the animals are challenged with a single i.p. injection of lipopolysaccharide (LPS, 8 mg/Kg) or PBS (vehicle for LPS). Four hours after LPS/PBS insult, blood is collected and cytokines are analyzed in plasma using multiplex technology.
To test whether Nexinhibs, and in particular NEIa-C6, have additional protective properties in inflammation models relevant to human disease, independent of inflammasome activation, we tested the ability of C6 to protect mice from LPS-induced systemic inflammation. In these experiments, mice received NEIa-C6 (30 mg/Kg) or vehicle by a single i.p. injection and two hours later, the animals are challenged with a single i.p. injection of lipopolysaccharide (LPS, 8 mg/Kg), an important outer membrane component of gram-negative bacteria. In this model, endotoxemia insult induces the production of pro-inflammatory cytokines. To test the possible anti-inflammatory effect of NEIa-C6, we comparatively analyzed cytokine levels in plasma of LPS-insulted and control mice using multiplex technology.

[2] = tested on: mouse neutrophils; test: Isoluminol-dependent chemiluminescence assay of MPO secretion in purified mouse neutrophils; format: cell-based; conditions: 10 μM inhibitor, PMA stimulated, FIG. 3B
From the text: FIGS. 3A-C illustrate the effect of Inhibitors C1, C2, C4, C5, and C6 and comparator Nexinhib 20 (shown as “C20”) on MPO secretion of mouse neutrophils. FIG. 3A is a schematic representation of a cell-based secondary screening assay used to analyze the potency the potency of Rab27a-JFC1 inhibitors for their ability to decrease exocytosis of intact human neutrophil. This cell-based assay measures the secretion of myeloperoxidase (MPO) by human neutrophils using cell-impermeant isoluminol-dependent chemiluminescence in the absence of exogenous peroxidases.
(§1) Human neutrophils were isolated from normal donor's blood by Ficoll density centrifugation, as described previously (23). Murine bone marrow-derived neutrophils were isolated using a Percoll gradient fractionation system as described (24). A three-layer Percoll gradient was used (52%, 64%, and 72%), and neutrophils were isolated from the 64-72% interface, washed, and used in the assays.
Extracellular MPO-dependent reactive oxygen species (ROS) production was measured using the chemiluminescence reactions mediated by isoluminol (25). To this end, 3×10^5 neutrophils were resuspended in serum-free RPMI 1640 medium in the presence of cell-impermeant isoluminol, and reactions were carried out in the absence of exogenous peroxidase. Neutrophils were incubated in the presence of compounds or DMSO (0.5%) pin-tooled into 384-well plates in a […]. Control experiments were run in parallel in the presence of [COMPOUND LEFT OUT] (0.5 mM) to inhibit endogenous myeloperoxidase. After addition of stimuli (phorbol 12-myristate 13-acetate, “PMA”) or vehicle using liquid handling devices (BioRaptor FRD, Beckman Coulter), MPO-dependent chemiluminescence was continuously monitored for 30 min at 37 °C using a 2104 EnVision multilabel plate reader. For secretion assays, 0.5×10^6 neutrophils were incubated in RPMI 1640 medium in polystyrene 96-well plates in the presence of Inhibitors or dimethyl sulfoxide (DMSO) control for 1 hour and stimulated for the indicated times at 37 °C with PMA (0.1 μg/ml), GM-CSF (10 ng/ml), and fMLP (1 μM) or DMSO control. The cells were spun down, and supernatants were transferred to clean plates using plate filters to avoid contamination from cellular secretory proteins. MPO was measured by ELISA (R&D Systems).
Results: FIG. 3B is a graph showing the effect of Inhibitors C1, C2, C4, C5, and C6 on secreted MPO-dependent reaction using the isoluminol-dependent chemiluminescence assay in highly purified mouse neutrophils. On the graph of FIG. 3B, the pre-fix “NS” means “no stimuli” where the cells were treated with 10 μM C1, C2, C4, C5, C6, and C20 alone without any exocytosis stimuli. The pre-fix “PMA” means the cells were stimulated with PMA to secrete MPO and were treated with 10 μM of the designated Inhibitor. […] Mean % inhibition: C1, 76.74; C2, 59.85; C4, 70.9; C6, 62.4; C20, 99.22.

[3] = tested on: human neutrophils (Gelatinase granule cargo MMP9); test: Flow cytometry of gelatinase granule exocytosis (MMP9) in human neutrophils; format: cell-based; conditions: 1 hour, GM-CSF + fMLP
From the text: as §1
Method: The up-regulation of granule membrane-associated neutrophil markers at the plasma membrane was analyzed by flow cytometry. In these studies, flow cytometry analysis was performed by resuspension of 1×10^6 human neutrophils in phenol red-free RPMI 1640 medium, treated with a 10 μM solution of Inhibitors C1, C2, C4, C5, and C6 and Nexinhib 20 (C20) or DMSO control for 1 hour, and stimulated with physiological agonists GM-CSF (10 ng/ml) for 30 min followed by the addition of fMLP (1 μM) to induce degranulation or left untreated at 37 °C (non-stimulated, NS). The reactions were stopped by transferring the samples to ice and immediately spinning down the cells to initiate blocking and staining. To analyze the plasma membrane expression of plasma membrane markers, the cells were blocked in ice-cold PBS containing 1% BSA and stained with phycoerythrin (PE)-, FITC-, or Alexa647-conjugated anti-human CD63, CD66b, MMP9, and CD11b antibodies that detect extracellular epitopes of these markers. The cells were then washed and fixed in 1% paraformaldehyde in PBS. Samples were analyzed using a NovoCyte flow cytometer, and the data were processed using FlowJo software.

[4] = 30 mg/Kg i.p., LPS 8 mg/Kg, plasma, FIG. 10A

## CCN(CC)CCNC(=O)/C(=C/c1cccc([N+](=O)[O-])c1)n1cncn1 [154 (C6)]
[1]; 30 mg/Kg i.p. 2 h before LPS 8 mg/Kg, plasma 4 h after LPS, FIG. 10A
  Production of pro-inflammatory cytokines: inhibit the production of the indicated pro-inflammatory cytokines
[1]; [4]
  GM-CSF production: significantly decreases
  IL-1β production: significantly decreases
  IL-17 levels: decreased
  MIP-2 levels: decreased
  TL-3 levels: decreases
[1]; 30 mg/Kg i.p., LPS 8 mg/Kg, plasma, listed as C6
  IL-10 levels: increases the production of IL-10
[1]; 30 mg/Kg i.p., LPS 8 mg/Kg, plasma, listed as NEIa-C6
  IL-10 levels: increased the levels of IL-10
[2]
  Inhibition of exocytosis vs DMSO control: significant inhibition of exocytosis
[2]; Mus musculus, Neutrophil
  inhibition at 10 µM: 62.4%
[3]; 10 μM, relative to DMSO, FIG. 6
  Inhibition in MMP9 experiment (words; printed as CD66b up-regulation): marked inhibition of CD66b up-regulation
[3]; Homo sapiens, Neutrophil, N=12 donors, FIG. 6, read-out: % Inhibition of MMP9 up-regulation
  inhibition at 10 µM: 54.4%
